Test results reported in US11657895B2, “Methods for identifying treatment targets based on multiomics data” (INSTITUTE FOR SYSTEMS BIOLOGY, priority 2016, dated 2023).
pIC50: −log10 of the molar value.

Columns and labels:
U251 = test: Proliferation in GBM-derived cell line U251; type: cell-based; settings: Homo sapiens, U-251
GBM cell lines = settings: 1.85 nM romidepsin, Sawa et al., 2004; cited from earlier work
[1] = Iwamoto et al., 2011; cited from earlier work
[2] = tested on: HA, T98G and U251 cell lines; test: Proliferation screen across the HA, T98G and U251 cell lines; settings: for Signficant Effect on Proliferation (cell lines): oncogene inhibitor paired with miRNA mimic(s) targeting the same oncogene, cell lines listed
[3] = tested on: HA, T98G and U251 cell lines; test: Apoptosis screen across the HA, T98G and U251 cell lines; type: cell-based, human; settings: oncogene inhibitor paired with miRNA mimic(s) targeting the same oncogene; cell lines listed

Compound | pIC50 (U251) | Effect in GBM cell lines (GBM cell lines) | half-life in patients [1] | Rank of single-agent effects on proliferation and apoptosis [2] | Signficant Effect on Proliferation (cell lines) [2] | Significant Effect on Apoptosis (cell lines) [3]
C/C=C1\NC(=O)[C@H]2CSSCC/C=C/[C@H](CC(=O)N[C@H](C(C)C)C(=O)N2)OC(=O)[C@H](C(C)C)NC1=O [romidepsin, (1S,4S,7Z,10S,16E,21R)-7-ethylidene-4,21-diisopropyl-2-oxa-12,13-dithia-5,8,20,23-tetrazabicyclo[8.7.6]tricos-16-ene-3,6,9,19,22-pentone] | 8.96 | anti-proliferative and pro-apoptotic | short half-life | strongest effects on proliferation and apoptosis in every cell line | HA, U251 | 
O=C(CCCCCCC(=O)Nc1ccccc1)NO [Vorinostat, N-Hydroxy-N′-phenyloctanediamide] |  |  |  |  | HA, U251 | 
CNC(=O)c1cc(Oc2ccc(NC(=O)Nc3ccc(Cl)c(C(F)(F)F)c3)cc2)ccn1 [Sorafenib, 4-[4-[[4-chloro-3-(trifluoromethyl)phenyl]carbamoylamino]phenoxy]-N-methyl-pyridine-2-carboxamide] |  |  |  |  |  | HA, 198G
